In US20100098631A1, “Novel-2-Heteroaryl Substituted Indoles 695” (ASTRAZENECA AB, priority 2007, published 2010) one finds IC50 data, which are given here for seven molecules.

This assay concerns the target T1, synthetic Aβ 1-40 (Homo sapiens, UniProt P05067).
T1 construct: using synthetic Aβ 1-40 in 2.7 nM of [^3H]PIB
Briefly: Competition binding assay ([3H]PIB as radioligand). The settings on record: [3H]PIB 2.7 nM as radioligand, synthetic Aβ 1-40, phosphate buffer pH 7.5, 30 min room temperature; read-out: IC50 in the competion binding assay. On the procedure:
Competition binding was performed in 384-well FB filter plates using synthetic Aβ 1-40 in 2.7 nM of [^3H]PIB (or another ^3H-labeled radioligand when so mentioned) in phosphate buffer at pH 7.5, by adding various concentrations of non-radioactive compounds originally dissolved in DMSO. The binding mixture was incubated for 30 min at room temperature, followed by vacuum filtration, and subsequently by washing twice with 1% Triton-X100. Scintillation fluid was thereafter added to the collected Aβ 1-40 on the filter plate, and the activity of the bound remaining radioligand ([^3H]PIB or another ^3H-labeled radioligand) was measured using 1450 Microbeta from PerkinElmer. Specific binding was determined according to the competion binding assay described herein. The determined IC50's in the competion binding assays (using [^3H]PIB as radioligand) of compounds of the present invention are shown in Table 1.

T1 sequence (P05067 672-711 limits assumed): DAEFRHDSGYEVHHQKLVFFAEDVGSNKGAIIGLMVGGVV

Take `CNc1ccc(-c2cc3cc(O)ccc3[nH]2)cn1` [2-[6-(Methylamino)pyridin-3-yl]-1H-indol-5-ol]: the IC50 stood at 736 nM.
For `NC(=O)c1ccc(-c2cc3ccccc3[nH]2)cn1` [5-(1H-indol-2-yl)pyridine-2-carboxamide, 5-(1H-Indol-2-yl)pyridine-2-carboxamide] the value was 143 nM; for `CNc1ccc(-c2cc3cc(F)ccc3[nH]2)cn1` [5-(5-Fluoro-1H-indol-2-yl)—N-methylpyridin-2-amine], 152 nM.
In the case of `CNc1ccc(-c2cc3cc(OC)ccc3[nH]2)cn1` [5-(5-Methoxy-1H-indol-2-yl)—N-methylpyridin-2-amine] it was 201 nM; in that of `COC(=O)c1ccc(-c2cc3cc(O)ccc3[nH]2)nc1` [6-(5-Hydroxy-1H-indol-2-yl)-Nicotinic Acid Methyl Ester], 140 nM.
For `COC(=O)c1ccc(-c2cc3cc(OC)ccc3[nH]2)nc1` [Methyl 6-(5-methoxy-1H-indol-2-yl)-nicotinate], the 50% inhibitory concentration (IC50) is 141 nM.
In the case of `CC(C)(C)OC(=O)n1c(-c2ccc(C(N)=O)nc2)cc2cc(F)ccc21` [tert-Butyl 2-(6-carbamoylpyridin-3-yl)-5-fluoro-1H-indole-1-carboxylate] it was 5370 nM.

As a reminder, the IC50 is the concentration needed to halve the response being measured.
